Assay results as given in patent US20080107661A1, “MUC1 and ABL” (Dana-Farber Cancer Institute, Inc., priority 2006, published 2008).
Structures can show the parent of a compound that is named as a salt.

How the values were obtained:
[1] = test system: MUC1-CD (purified MUC1 cytoplasmic domain, thrombin-cleaved from GST-MUC1-CD)
[2] = test system: MUC1-CD(Y60F)
[3] = test system: HCT116 cells; assay: Assessment of apoptosis (sub-G1 DNA, propidium iodide, FACScan); format: cell-based, human; settings: 10 μM STI571 with CDDP, 12 h
[4] = test system: GFP-c-Abl; assay: Nuclear targeting of GFP-c-Abl in transiently transfected 293 cells; format: cell-based, human
From the text: (§1) Cell culture. Human HeLa cervical cancer cells, HCT116/vector (HCT116 colorectal carcinoma cells stably transfected with an empty vector), HCT116/MUC1 (HCT116 colorectal carcinoma cells stably transfected with an expression vector encoding a MUC1 polypeptide), HCT116/MUC1(Y46F) (HCT116 colorectal carcinoma cells stably transfected with an expression vector encoding a mutant MUC1 polypeptide containing an amino acid substitution at position 46 changing a tyrosine (Y) to phenylalanine (F)) colon cancer cells (Ren et al., (2002) J. Biol. Chem. 277: 17616-17622) and 293 cells were cultured in Dulbecco's modified medium with 10% heat-inactivated fetal bovine serum, 100 units/ml penicillin, 100 μg/ml streptomycin and 2 mM L-glutamine. Human ZR-75-1/vector (ZR-75-1 breast cancer cells stably transfected with an empty vector) and ZR-75-1/MUC1siRNA (ZR-75-1 breast cancer cells stably transfected with an expression vector encoding an siRNA specific for MUC1) breast cancer cells (Ren et al., (2004) Cancer Cell 5:163-175) were grown in RPMI1640 medium containing 10% heat-inactivated fetal bovine serum and antibiotics. Cells were treated with 1 μM adriamycin (ADR; Calbiochem), 100 μM cisplatin (CDDP; Sigma) or 10 μM STI571 (Gleevec; Novartis, Basel, Switzerland).
Cell transfections. […]

[5] = test system: c-Abl; assay: Nuclear and cytosolic c-Abl in HeLa/vector and HeLa/MUC1 cells after genotoxic agents (subcellular fractionation, immunoblot); format: cell-based, human; settings: 1 μM ADR, 2 hours
From the text: as §1
Subcellular fractionation. Nuclear fractions were prepared as described (Kharbanda et al., (1996) Cancer Res. 56:3617-3621). Cytosolic fractions were prepared as described (Hill et al., (2004) EMBO J. 23:2134-2145). Cell membrane fractions were prepared with the Plasma Membrane Extraction Kit (BioVision Research Products, Mountain View, Calif.). Mitochondria were purified as described (Ren et al., (2004) Cancer Cell 5:163-175; Ren et al., (2006) Oncogene 25:20-31).
Immunoprecipitations and immunoblot analysis. Cell lysates were prepared as described (Kharbanda et al., (1995) Nature 376:785-788); Yoshida et al., (2005) Nat. Cell Biol. 7:278-285). Soluble proteins were incubated with anti-MUC1-N (Kufe et al., (1984) Hybridoma 3:223-232), anti-MUC1-C (Ab5; Neomarker, Montreal, Quebec), anti-Flag (Sigma, St. Louis, Mo.), anti-c-Abl (Ab3; Oncogene, San Diego, Calif.) or anti-14-3-3 (Abcam Inc., Cambridge, Mass.) antibodies for 2 hours at 4° C., followed by precipitation with protein G-Sepharose beads for 1 hour. […] Intensity of the signals was determined by densitometric scanning. Statistical significance was determined by the Student's t-test.

[6] = test system: MUC1(Y60F), MUC1 with tyrosine 60 of the cytoplasmic domain changed to phenylalanine
[7] = test system: MUC1 (mucin 1), wild-type, expressed in cells as heterodimer of MUC1-N and MUC1-C

GST-c-Abl (glutathione-S-transferase fused in frame with a wild-type c-Abl polypeptide)
phosphorylation of MUC1-CD (in vitro kinase assay, 32P-ATP, SDS-PAGE and autoradiography) [1]: Analysis of the reaction products by SDS-PAGE and autoradiography showed phosphorylation of MUC1-CD | phosphorylation of MUC1-CD(Y60F) (in vitro kinase assay, 32P-ATP, SDS-PAGE and autoradiography) [2]: c-Abl phosphorylation was substantially decreased with the MUC1-CD(Y60F) mutant

Cc1ccc(NC(=O)c2ccc(CN3CCN(C)CC3)cc2)cc1Nc1nccc(-c2cccnc2)n1 [STI751, imatinib mesylate]
effect on CDDP-induced apoptosis (sub-G1 DNA) ([3]; HCT116/MUC1(Y60F) cells): significantly attenuated | effect on CDDP-induced apoptosis (sub-G1 DNA) ([3]; HCT116/MUC1 cells): no significant effect | effect on CDDP-induced apoptosis (sub-G1 DNA) ([3]; HCT116/vector cells): significantly attenuated

GST-c-Abl(K-R) (GST fused to a kinase defective mutant c-Abl, lysine to arginine in the active site)
phosphorylation of MUC1-CD (in vitro kinase assay, 32P-ATP, SDS-PAGE and autoradiography) [1]: There was no detectable phosphorylation when MUC1-CD was incubated with a purified kinase-inactive c-Abl(K-R)

COc1cccc2c1C(=O)c1c(O)c3c(c(O)c1C2=O)C[C@@](O)(C(=O)CO)C[C@@H]3O[C@H]1C[C@H](N)[C@H](O)[C@H](C)O1 [ADR, adriamycin]
ADR-induced nuclear targeting of c-Abl ([4]; GFP-c-Abl with coexpressed MUC1, 2 hours): attenuated by coexpression of MUC1 | nuclear targeting of GFP-tagged c-Abl ([4]; GFP-c-Abl without MUC1, ADR, 2 hours): increased by ADR treatment | nuclear targeting of c-Abl ([5]; HeLa/MUC1 cells): little to no nuclear targeting of c-Abl | nuclear targeting of c-Abl ([5]; HeLa/vector cells): targeting of c-Abl to the nucleus

c-Abl (nonreceptor c-Abl tyrosine kinase), endogenous in human cell lines
c-Abl Thr-735 phosphorylation (anti-c-Abl precipitates, immunoblot anti-phospho-c-Abl-Thr-735) [6]: c-Abl Thr-735 phosphorylation was attenuated by expression of MUC1, but not MUC1(Y60F), in HCT116 cells | c-Abl Thr-735 phosphorylation (anti-c-Abl precipitates, immunoblot anti-phospho-c-Abl-Thr-735) [7]: c-Abl Thr-735 phosphorylation was attenuated by expression of MUC1
